These results are taken from US9248131B2, “Aquaporin modulators and methods of using them for the treatment of edema and fluid imbalance” (THE ARIZONA BOARD OF REGENTS ON BEHALF OF THE UNIVERSITY OF …, priority 2006, dated 2016).

The structures appear in SMILES notation.

For assay [1], the system named is ischemia-induced cerebral edema (MCAO). Conditions: cited from earlier work.
The target of assay [2] is T1, Na—K—Cl cotransporter (NKCC1) (Mus musculus, UniProt P55012).
T1 sequence (P55012 1-1205): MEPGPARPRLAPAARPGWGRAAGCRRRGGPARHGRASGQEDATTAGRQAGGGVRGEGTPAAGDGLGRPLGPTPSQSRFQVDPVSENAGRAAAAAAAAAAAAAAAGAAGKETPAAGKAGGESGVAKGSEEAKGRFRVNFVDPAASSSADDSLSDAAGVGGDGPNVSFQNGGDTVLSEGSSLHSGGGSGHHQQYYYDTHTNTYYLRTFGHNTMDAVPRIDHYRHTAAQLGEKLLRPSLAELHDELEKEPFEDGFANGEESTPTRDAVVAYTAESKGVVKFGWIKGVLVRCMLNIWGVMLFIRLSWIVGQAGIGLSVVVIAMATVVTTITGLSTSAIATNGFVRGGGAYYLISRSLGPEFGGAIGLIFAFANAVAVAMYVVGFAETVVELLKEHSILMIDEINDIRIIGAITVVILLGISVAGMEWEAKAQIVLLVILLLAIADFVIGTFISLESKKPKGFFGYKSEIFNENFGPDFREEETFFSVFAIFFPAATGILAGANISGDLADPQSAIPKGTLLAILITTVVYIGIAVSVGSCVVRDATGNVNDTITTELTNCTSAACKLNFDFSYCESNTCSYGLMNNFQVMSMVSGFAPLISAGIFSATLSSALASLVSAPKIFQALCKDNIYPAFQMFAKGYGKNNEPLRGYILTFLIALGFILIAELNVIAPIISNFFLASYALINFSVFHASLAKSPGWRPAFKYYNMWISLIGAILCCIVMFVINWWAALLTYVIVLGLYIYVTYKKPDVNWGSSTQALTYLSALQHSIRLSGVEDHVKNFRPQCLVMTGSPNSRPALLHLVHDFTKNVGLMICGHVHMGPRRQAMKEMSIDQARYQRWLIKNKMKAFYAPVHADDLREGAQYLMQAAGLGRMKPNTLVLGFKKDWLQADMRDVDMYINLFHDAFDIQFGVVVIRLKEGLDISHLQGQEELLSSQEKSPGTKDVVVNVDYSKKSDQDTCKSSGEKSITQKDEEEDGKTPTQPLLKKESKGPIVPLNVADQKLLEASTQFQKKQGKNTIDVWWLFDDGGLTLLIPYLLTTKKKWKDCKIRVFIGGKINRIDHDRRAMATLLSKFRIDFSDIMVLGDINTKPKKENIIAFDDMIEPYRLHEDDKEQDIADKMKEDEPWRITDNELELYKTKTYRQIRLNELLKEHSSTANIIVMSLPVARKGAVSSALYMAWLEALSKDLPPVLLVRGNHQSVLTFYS
Conditions: read-out: IC50 (half-maximal blocking concentration) against Na—K—Cl cotransporter; mouse kidney collecting duct cell line; cited from earlier work.

A further assay has as its target T2, AQP4-expressing oocytes (Homo sapiens, UniProt P55087).
T2 construct: expressed in transfected cells; host or cells: Xenopus oocytes
The assay is described as follows: Simple screen: time to oocyte bursting in hypotonic saline. Conditions: 100 μM; AQP4-expressing oocytes preincubated 10-15 min, then 100 mOsm saline. Format: cell-based. The method, then:
The composition of the library for initial AQP channel screening included various channel, transporter and receptor blocking compounds based on intuition and from clues regarding clinical side effects that involved water transporting tissues. In a simple screen (FIG. 1), control and AQP4-expressing oocytes were preincubated in isotonic saline (100 mM NaCl; 5 mM MgCl2; 5 mM HEPES, pH 7.3; ˜200 mOsm) containing the test compound for 10-15 min before each experiment; then the time to oocyte bursting (physical explosion) after transfer to 100 mOsm saline was monitored visually. […] Block was evident in the increased time required for bursting in hypotonic saline.

T2 sequence (P55087 whole entry, species assumed): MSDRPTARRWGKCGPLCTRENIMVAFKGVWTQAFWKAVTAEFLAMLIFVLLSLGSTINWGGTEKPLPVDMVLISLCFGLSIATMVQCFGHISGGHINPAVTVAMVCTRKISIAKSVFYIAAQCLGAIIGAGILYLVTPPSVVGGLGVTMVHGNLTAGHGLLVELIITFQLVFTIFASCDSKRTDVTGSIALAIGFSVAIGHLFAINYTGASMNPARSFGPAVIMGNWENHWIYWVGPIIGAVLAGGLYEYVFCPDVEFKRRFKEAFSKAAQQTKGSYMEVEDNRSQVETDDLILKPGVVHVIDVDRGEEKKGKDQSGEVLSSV

With `CCCCNc1cc(C(=O)O)cc(S(N)(=O)=O)c1Oc1ccccc1` [bumetanide], the ischemia-induced cerebral edema entry in assay [1] (30-mg/kg dose, rats, MCAO) was “effectively reduced ischemia-induced cerebral edema”. Moreover, the “edema formation, magnetic resonance diffusion-weighted imaging” value in assay [1] (intravenous, first 3 hours of MCAO-induced cerebral ischemia) was “reduced edema formation”. Further, the lowest effective dose in assay [1] (rats, MCAO, reduction of edema) is on record as 7.6 mg/kg. Moreover, the IC50 in assay [2] was 330 nM. Also, the “time to oocyte bursting” value on AQP4-expressing oocytes is “significantly delayed bursting time”.
